What was measured:
firefly luciferase [1] = biological target: T1, firefly luciferase (Photinus pyralis, UniProt P08659); assay: Detergent screen with Tergitol NP-9, firefly luciferase (Example 3); type: biochemical; settings: 0.06% quencher in reagent solution; 0.5% Tergitol NP-9
Protocol: (§1) Unless otherwise specified, materials were obtained from Sigma-Aldrich.
(§2) The firefly luciferase and Renilla luciferase enzymes were diluted as follows. Firefly luciferase was diluted to 14 ng/ml in Delbecco's Minimal Essential (DMEM) medium (Gibco/Invitrogen) containing 0.1% Prionex®. Renilla luciferase was diluted to 10 ng/ml in DMEM medium containing 0.1% Prionex®.
(§3) The luciferase reactions were initiated by adding 50 μl of the firefly luciferase or Renilla luciferase enzyme solution to 50 μl of reagent solution. The reactions were performed as described above. The retained firefly luciferase and Renilla luciferase luminescence as well as the selectivity values for each quencher were calculated (Table 3). The values listed are based on 0.06% quencher in the reagent solution.

firefly luciferase [2] = biological target: T1, firefly luciferase; assay: Versions of firefly luciferase reagent, firefly luciferase only samples (Example 10); type: biochemical
Protocol: (§4) Eight different versions of firefly luciferase reagent were made. The versions contained one of two luciferin substrates: luciferin or 5′ fluoroluciferin. The versions also differed in whether they contained Coenzyme A and/or DTT (a thiol). All versions of the reagent contained 250 mM HEPES pH 7.4, 16 mM MgSO4, 2 mM ATP and 2 mM luciferin or 5′fluoroluciferin. To create the various versions of the firefly luciferase reagent, 20 mM DTT, 2 mM Coenzyme A, 20 mM DTT and 2 mM Coenzyme A or neither DTT or Coenzyme A was added. In addition, sub-versions of the reagent were created which contained 0.3 mM of the indole (#3077) Renilla luciferase quencher, 0.04% (w:v) of the detergent (4-((dodecyldimethylammonium)methyl)benzoate) Renilla luciferase quencher, both quenchers or neither quencher. In all, a total of 32 versions of firefly luciferase reagent were created (Table 10).
(§5) To mimic the effect of measuring Renilla luciferase luminescence followed by the measurement of firefly luciferase luminescence in a single sample, side-by-side samples (each in triplicate) were used for each version of reagent. The first triplicate of samples comprised one of the versions of firefly luciferase reagent and a firefly luciferase solution (added 1:1) containing F12 medium (Invitrogen), 1 mg/ml BSA (ThermoFisher) and 14 ng/ml QuantiLum® luciferase (Promega). The second triplicate of samples comprised the same version of firefly luciferase reagent used in the first trio and a firefly/Renilla luciferase solution (added 1:1) containing F12 medium, 1 mg/ml BSA, 14 ng/ml QuantiLum® luciferase and 140 ng/ml Renilla luciferase. Firefly and Renilla luciferase luminescence was measured as previously described in both sets of samples at the same time. […] The firefly luciferase measurements were obtained from the samples only containing the firefly luciferase while the Renilla luciferase measurements were obtained from the samples containing both firefly and Renilla luciferases.

Renilla luciferase [3] = biological target: T2, Renilla luciferase (Renilla reniformis, UniProt P27652); assay: Versions of firefly luciferase reagent, firefly/Renilla luciferase samples (Example 10); type: biochemical; settings: firefly/Renilla sample
T2 sequence (P27652 1-311): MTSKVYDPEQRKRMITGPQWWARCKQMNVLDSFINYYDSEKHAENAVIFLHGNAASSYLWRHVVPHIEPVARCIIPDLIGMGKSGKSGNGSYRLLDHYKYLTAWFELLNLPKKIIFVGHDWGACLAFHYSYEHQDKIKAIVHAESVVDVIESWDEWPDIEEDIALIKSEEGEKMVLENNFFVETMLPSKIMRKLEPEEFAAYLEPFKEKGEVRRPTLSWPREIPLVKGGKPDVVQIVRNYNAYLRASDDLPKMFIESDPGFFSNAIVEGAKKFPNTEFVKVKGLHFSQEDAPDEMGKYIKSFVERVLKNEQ
Protocol: as §4, §5

Renilla luciferase [4] = biological target: T2, Renilla luciferase; assay: Quench of Renilla luciferase luminescence in lysed CHO cells expressing Renilla luciferase (Example 7); type: cell-based; settings: for Inhibition (Initial/Addition): 10 μM #3077 and/or 0.04% #1424, 0.5% Tergitol NP-9; for Renilla luciferase luminescence after inhibitor addition: 3 minutes after lysis solution with 0.5% Tergitol NP-9 and 10 μM #3077 and/or 0.04% #1424; for Initial Renilla luciferase luminescence: CHO cells, EnduRen, before inhibitor addition
Protocol: Renilla luciferase was expressed under the control of the CMV promoter in Chinese Hamster Ovary (CHO) cells. The cells were grown in DMEM+10% FBS (Invitrogen). The cells (20,000) were plated in 96-well plates and cultured in the presence of the EnduRen™ Live Cell Substrate (Promega) in order to generate continuous Renilla luciferase-mediated luminescence. After 12 hours of culturing, Renilla luciferase-mediated luminescence was measured. After measurement, the cells were lysed with an equal volume of a solution containing 0.5% Tergitol NP-9 and either 10 μM compound #3077 (non-detergent inhibitor), 0.04% 4-((dodecyldimethylammonium)methyl)benzoate (#1424) (detergent inhibitor), or a combination of the two. The cells were exposed for 3 minutes and Renilla luciferase-mediated luminescence was measured.

Renilla luciferase [5] = biological target: T2, Renilla luciferase; assay: Detergent screen with Tergitol NP-9, Renilla luciferase (Example 3); type: biochemical; settings: 0.5% Tergitol NP-9; for Retained Renilla Luminescence (%): 0.06% quencher in reagent solution; for Selectivity Value: retained firefly / retained Renilla, 0.06% quencher
Protocol: as §1, §2, §3

Renilla luciferase [6] = biological target: T2, Renilla luciferase; assay: Non-detergent compound screen, Renilla luciferase (Example 6); type: biochemical
firefly luciferase [7] = biological target: T1, firefly luciferase; assay: Non-detergent compound screen, firefly luciferase (Example 6); type: biochemical; settings: 0.5% Tergitol NP-9, 0.03% BDDABr, read-out: Retained Firefly Luciferase Value (%)
Renilla luciferase [8] = biological target: T2, Renilla luciferase; assay: Quench of Renilla luciferase luminescence by competitive inhibitors in detergent-containing quenching reagent (Example 1); type: biochemical
Protocol: Renilla luciferase (1×10^−9 M in Renilla Luciferase Lysis Buffer (Promega))+0.1% Prionex (PentaPharma) was added to Renilla Luciferase Assay Buffer (Promega) containing 3 μM coelenterazine-h. The initial Renilla luciferase-mediated luminescence was measured for 10 seconds using a Turner 20/20 n (Turner BioSystems). A quenching reagent containing 50 mM HEPES pH 7.4, 16 mM MgSO4, 1 mM CDTA, 0.5% Tergitol NP-9, 0.015% dodecyltrimethylammonium bromide, 10 mM thiourea, 0.05% Mazu-DF-204 (PGP), and 1.5 mM ATP (Pharmacia) was added to the reactions to reduce the Renilla luciferase-mediated luciferase luminescence. […] After the addition of the inhibitors, a second Renilla luciferase-mediated luminescence reading was taken. Unless otherwise specified, materials were obtained from Sigma-Aldrich.
The quenching agents described herein are effective in the presence of detergents used for cell lysis as well as other quenching agents.

[9] = Luciferin, no thiol, 0.3 mM #3077 and/or 0.04% #1424
[10] = Quench Reagent + 10 μM inhibitor
[11] = Quench Reagent + 100 μM inhibitor

T1 sequence (P08659 whole entry): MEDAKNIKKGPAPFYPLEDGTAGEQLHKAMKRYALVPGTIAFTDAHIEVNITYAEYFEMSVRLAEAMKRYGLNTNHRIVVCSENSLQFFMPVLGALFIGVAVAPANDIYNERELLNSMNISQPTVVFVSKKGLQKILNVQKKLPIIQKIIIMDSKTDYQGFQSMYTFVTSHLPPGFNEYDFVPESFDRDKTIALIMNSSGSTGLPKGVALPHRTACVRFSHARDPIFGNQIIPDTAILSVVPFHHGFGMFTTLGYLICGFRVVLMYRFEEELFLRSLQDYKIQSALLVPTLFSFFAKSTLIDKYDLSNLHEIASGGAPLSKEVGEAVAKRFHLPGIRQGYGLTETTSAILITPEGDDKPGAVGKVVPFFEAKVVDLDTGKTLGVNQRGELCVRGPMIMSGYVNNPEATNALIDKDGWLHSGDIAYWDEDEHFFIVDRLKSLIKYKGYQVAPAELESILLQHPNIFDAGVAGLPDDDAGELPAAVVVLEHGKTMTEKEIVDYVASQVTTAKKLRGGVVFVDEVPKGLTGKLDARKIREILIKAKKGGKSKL

For CCCCCCCCCCCC[N+](C)(C)Cc1ccc(C(=O)[O-])cc1 [Compound 1424, 4-((Dodecyldimethylammonium)methyl)benzoate], the “Retained Firefly Luminescence (%)” value (firefly luciferase [1]) was 127.0%, the Firefly luminescence (firefly luciferase [2]; 5′-fluoroluciferin, CoA) was 2,095,790 and the Firefly luminescence (firefly luciferase [2]; 5′-fluoroluciferin, DTT) was 512,625. For the same compound, the Firefly luminescence (firefly luciferase [2]; 5′-fluoroluciferin, DTT + CoA) was 2,376,253, the Firefly luminescence (firefly luciferase [2]; 5′-fluoroluciferin, no thiol) was 268,289 and the Firefly luminescence (firefly luciferase [2]; Luciferin, CoA) was 1,621,883. The Firefly luminescence (firefly luciferase [2]; Luciferin, DTT) was 291,173, the Firefly luminescence (firefly luciferase [2]; Luciferin, DTT + CoA) was 1,881,453 and the Firefly luminescence (firefly luciferase [2]; [9]) was 144,239. The Renilla luminescence (Renilla luciferase [3]; 5′-fluoroluciferin, CoA) was 2,891,880, the Renilla luminescence (Renilla luciferase [3]; 5′-fluoroluciferin, DTT + CoA) was 2,833,435 and the Renilla luminescence (Renilla luciferase [3]; 5′-fluoroluciferin, DTT) was 1,142,573. The Renilla luminescence (Renilla luciferase [3]; 5′-fluoroluciferin, no thiol) was 1,138,027, the Renilla luminescence (Renilla luciferase [3]; Luciferin, CoA) was 2,240,063 and the Renilla luminescence (Renilla luciferase [3]; Luciferin, DTT + CoA) was 2,265,505. For the same compound, the Renilla luminescence (Renilla luciferase [3]; Luciferin, DTT) was 699,059, the Renilla luminescence (Renilla luciferase [3]; Luciferin, no thiol) was 660,916 and the “Inhibition (Initial/Addition)” value (Renilla luciferase [4]) was 52. For the same compound, the “Renilla luciferase luminescence after inhibitor addition” value (Renilla luciferase [4]) was 19963, the “Initial Renilla luciferase luminescence” value (Renilla luciferase [4]) was 1037560 and the “Retained Renilla Luminescence (%)” value (Renilla luciferase [5]) was 20.0%. For the same compound, the “Selectivity Value” (Renilla luciferase [5]) was 6.4.

For CCCC[N+](C)(C)CCc1c[nH]c2ccc(/C=C/C(=O)NCc3ccc(OC)cc3)cc12.[I-] [Compound 3077, (E)-N-(2-(5-(3-(4-methoxybenzylamino)-3-oxoprop-1-enyl)-1H-indol-3-yl)ethyl)-N,N-dimethylbutan-1-aminium iodide], the Firefly luminescence (firefly luciferase [2]; 5′-fluoroluciferin, CoA) was 2,367,927, the Firefly luminescence (firefly luciferase [2]; 5′-fluoroluciferin, DTT) was 499,900 and the Firefly luminescence (firefly luciferase [2]; 5′-fluoroluciferin, DTT + CoA) was 2,677,367. For the same compound, the Firefly luminescence (firefly luciferase [2]; 5′-fluoroluciferin, no thiol) was 239,138, the Firefly luminescence (firefly luciferase [2]; Luciferin, CoA) was 1,502,143 and the Firefly luminescence (firefly luciferase [2]; Luciferin, DTT) was 252,225. For the same compound, the Firefly luminescence (firefly luciferase [2]; Luciferin, DTT + CoA) was 1,821,797, the Firefly luminescence (firefly luciferase [2]; [9]) was 115,749 and the Renilla luminescence (Renilla luciferase [3]; 5′-fluoroluciferin, CoA) was 2,360,350. For the same compound, the Renilla luminescence (Renilla luciferase [3]; 5′-fluoroluciferin, DTT + CoA) was 2,653,610, the Renilla luminescence (Renilla luciferase [3]; 5′-fluoroluciferin, DTT) was 514,808 and the Renilla luminescence (Renilla luciferase [3]; 5′-fluoroluciferin, no thiol) was 280,188. The Renilla luminescence (Renilla luciferase [3]; Luciferin, CoA) was 1,572,983, the Renilla luminescence (Renilla luciferase [3]; Luciferin, DTT + CoA) was 1,770,665 and the Renilla luminescence (Renilla luciferase [3]; Luciferin, DTT) was 260,392. For the same compound, the Renilla luminescence (Renilla luciferase [3]; Luciferin, no thiol) was 136,759, the “Inhibition (Initial/Addition)” value (Renilla luciferase [4]) was 608 and the “effectiveness at quenching Renilla luciferase-mediated luminescence relative to #1424 alone” value (Renilla luciferase [4]; 10 μM #3077 vs 0.04% #1424) was “about 12 fold”. For the same compound, the “Renilla luciferase luminescence after inhibitor addition” value (Renilla luciferase [4]) was 1402, the “Initial Renilla luciferase luminescence” value (Renilla luciferase [4]) was 852596 and the “Selectivity Value” (Renilla luciferase [6]; inhibitor 10 μM) was 20. The remaining activity at 10 µM (Renilla luciferase [6]; inhibitor 10 μM, 0.5% Tergitol NP-9, 0.03% BDDABr, read-out: Retained Renilla Luciferase Value (%)) was 5%, the “Selectivity Value” (Renilla luciferase [6]; inhibitor 100 μM) was 98 and the remaining activity at 100 µM (Renilla luciferase [6]; inhibitor 100 μM, 0.5% Tergitol NP-9, 0.03% BDDABr, read-out: Retained Renilla Luciferase Value (%)) was 1%. The “Selectivity Value” (Renilla luciferase [6]; inhibitor 1000 μM) was 980, the remaining activity at 1000 µM (Renilla luciferase [6]; inhibitor 1000 μM, 0.5% Tergitol NP-9, 0.03% BDDABr, read-out: Retained Renilla Luciferase Value (%)) was 0.1% and the remaining activity at 10 µM (firefly luciferase [7]; inhibitor 10 μM) was 100%. It also gave a remaining activity at 100 µM (firefly luciferase [7]; inhibitor 100 μM) of 98% and a remaining activity at 1000 µM (firefly luciferase [7]; inhibitor 1000 μM) of 98%.

With CCCCCCCCCCCC[N+](C)(C)Cc1ccccc1-c1ccccc1.[Br-] [N-(biphenyl-2-ylmethyl)-NN-dimethyldodecyan-1-ammonium bromide] the “Retained Firefly Luminescence (%)” value (firefly luciferase [1]) was 177.0%, the “Retained Renilla Luminescence (%)” value (Renilla luciferase [5]) was 0.8% and the “Selectivity Value” (Renilla luciferase [5]) was 221.3.

For C[N+](C)(Cc1ccccc1)C1CCCCC1.[Br-] [N-benzyl-N,N-dimethylcyclohexanaminium bromide], the “Retained Firefly Luminescence (%)” value (firefly luciferase [1]) was 90%, the “Retained Renilla Luminescence (%)” value (Renilla luciferase [5]) was 76% and the “Selectivity Value” (Renilla luciferase [5]) was 1.2.

For CCCCCC[N+](C)(C)Cc1ccccc1.[Br-] [N-benzyl-N,N-dimethylhexan-1-aminium bromide], the “Retained Firefly Luminescence (%)” value (firefly luciferase [1]) was 103%, the “Retained Renilla Luminescence (%)” value (Renilla luciferase [5]) was 54% and the “Selectivity Value” (Renilla luciferase [5]) was 1.9.

With CCCCCCCCCCCC[N+](C)(C)C1c2ccccc2-c2ccccc21.[Br-] [N-dodecyl-N,N-dimethyl-9H-fluoren-9-aminium bromide] the “Retained Firefly Luminescence (%)” value (firefly luciferase [1]) was 37%, the “Retained Renilla Luminescence (%)” value (Renilla luciferase [5]) was 1% and the “Selectivity Value” (Renilla luciferase [5]) was 37.

With O=C(Cc1ccc(O)cc1)Nc1ncc(-c2ccc(O)cc2)nc1Cc1ccccc1 [coelenteramide] the “Reduction in Renilla luciferase luminescence after 2nd measurement” value (“Reduction” for short) (Renilla luciferase [8]; [10]) was 18-fold, the “Reduction” value (Renilla luciferase [8]; [11]) was 21-fold and the Ki (Renilla luciferase [8]; in the presence of lysing detergent and quenching reagent) was over 100 µM.

“N-benzyl-N,N-dimethylloctan-1-aminium bromide” was tested, and the “Retained Firefly Luminescence (%)” value (firefly luciferase [1]) was 134%, the “Retained Renilla Luminescence (%)” value (Renilla luciferase [5]) was 13% and the “Selectivity Value” (Renilla luciferase [5]) was 10.3.

For methylether coelenterazine-h, the “Reduction” value (Renilla luciferase [8]; [10]) was 15-fold and the “Reduction” value (Renilla luciferase [8]; [11]) was 30-fold.

With methylether coelenterazine-hh the “Reduction” value (Renilla luciferase [8]; [10]) was 21-fold and the “Reduction” value (Renilla luciferase [8]; [11]) was 34-fold.
